Experimental data reported in the NIST ThermoML archive (doi:10.1016/j.jct.2013.02.017).

Settings: relaxation calorimetry - Quantum Design PPMS; for molar entropy: 101.33 kPa

O=P([O-])([O-])[O-].[Fe+3] [iron(III) phosphate]
Settings	molar entropy [J/K/mol]
1 K, Crystal 2	0.001252
2 K, Crystal 2	0.01157
3 K, Crystal 2	0.0497
4 K, Crystal 2	0.1381
5 K, Crystal 2	0.2911
6 K, Crystal 2	0.5136
7 K, Crystal 2	0.8015
8 K, Crystal 2	1.143
9 K, Crystal 2	1.528
10 K, Crystal 2	1.948
11 K, Crystal 2	2.4
12 K, Crystal 2	2.878
13 K, Crystal 2	3.381
14 K, Crystal 2	3.904
15 K, Crystal 2	4.446
16 K, Crystal 2	5.012
17 K, Crystal 2	5.603
18 K, Crystal 2	6.223
19 K, Crystal 2	6.877
20 K, Crystal 2	7.545
25 K, Crystal 1	11.49
30 K, Crystal 1	14.26
35 K, Crystal 1	16.51
40 K, Crystal 1	18.7
45 K, Crystal 1	20.89
50 K, Crystal 1	23.09
55 K, Crystal 1	25.3
60 K, Crystal 1	27.52
65 K, Crystal 1	29.74
70 K, Crystal 1	31.97
75 K, Crystal 1	34.2
80 K, Crystal 1	36.44
85 K, Crystal 1	38.66
90 K, Crystal 1	40.88
95 K, Crystal 1	43.09
100 K, Crystal 1	45.3
110 K, Crystal 1	49.7
120 K, Crystal 1	54.04
130 K, Crystal 1	58.32
140 K, Crystal 1	62.54
150 K, Crystal 1	66.7
160 K, Crystal 1	70.79
170 K, Crystal 1	74.82
180 K, Crystal 1	78.8
190 K, Crystal 1	82.72
200 K, Crystal 1	86.59
210 K, Crystal 1	90.41
220 K, Crystal 1	94.19
230 K, Crystal 1	97.92
240 K, Crystal 1	101.61
250 K, Crystal 1	105.25
260 K, Crystal 1	108.86
270 K, Crystal 1	112.42
273.15 K, Crystal 1	113.53
280 K, Crystal 1	115.93
290 K, Crystal 1	119.41
298.15 K, Crystal 1	122.21
300 K, Crystal 1	122.84

Settings	Triple point temperature [K]
Crystal 2	25
